Test results taken from US20260013501A1, “HERBICIDAL DERIVATIVES” (SYNGENTA CROP PROTECTION AG, priority 2022, published 2026).

Key:
Assay type in all cases: in vivo
[1] = system: Ipomoea hederacea (IPOHE); test: Post-emergence Test (Table B2), IPOHE; parameters: key: five-point scale: 5=81-100%, 4=61-80%, 3=41-60%, 2=21-40%, 1=0-20% damage; details: evaluated after 13 days
Description: (§1) Seeds of a variety of test species are sown in standard soil in pots (Ipomoea hederacea (IPOHE), Zea mays (ZEAMX), Echinochloa crus-galli (ECHCG), Amaranthus palmeri (AMAPA), (Amaranthus retoflexus (AMARE), and (Setaria faberi (SETFA)). After 8 days cultivation under controlled conditions in a glasshouse (at 24° C./16° C., day/night; 14 hours light; 65% humidity), the plants are sprayed with an aqueous spray solution derived from the formulation of the technical active ingredient in acetone/water (50:50) solution containing 0.5% Tween 20 (polyoxyethelyene sorbitan monolaurate, CAS RN 9005-64-5). Rate of application is shown in g/ha in the tables below. The test plants are then grown in a glasshouse under controlled conditions in a glasshouse (at 24° C./16° C., day/night; 14 hours light; 65% humidity) and watered twice daily. After 13 days the test is evaluated for the percentage damage caused to the plant. The biological activities are shown in the following table on a five-point scale (5=81-100%; 4=61-80%; 3=41-60%; 2=21-40%; 1=0-20%; -=not tested).

[2] = system: Zea mays (ZEAMX); test: Post-emergence Test (Table B2), ZEAMX; parameters: key: 5-point damage scale: 5=81-100%, 4=61-80%, 3=41-60%, 2=21-40%, 1=0-20%; details: evaluated after 13 days
Method in brief: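 Evaluation 13 days post-spray gives percent plant damage, reported in five 20% bands (1=0-20% up to 5=81-100%). Test species, sown in soil and kept at 24/16 °C day/night with 14 h light, are treated with compound in 50:50 acetone/water plus 0.5% Tween 20, applied per g/ha.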

[3] = system: Echinochloa crus-galli (ECHCG); test: Post-emergence Test (Table B2), ECHCG; parameters: key: 5-point damage scale: 5=81-100%, 4=61-80%, 3=41-60%, 2=21-40%, 1=0-20%; details: evaluated after 13 days
Description: as §1

[4] = system: Zea mays (ZEAMX); test: Pre-emergence Test (Table B1), ZEAMX; details: evaluated after 13 days
[5] = system: Echinochloa crus-galli (ECHCG); test: Pre-emergence Test (Table B1), ECHCG; details: evaluated after 13 days
[6] = system: Setaria faberi (SETFA); test: Pre-emergence Test (Table B1), SETFA; details: evaluated after 13 days
[7] = system: Ipomoea hederacea (IPOHE); test: Pre-emergence Test (Table B1), IPOHE; details: evaluated after 13 days
[8] = system: Amaranthus palmeri (AMAPA); test: Pre-emergence Test (Table B1), AMAPA; details: evaluated after 13 days
[9] = system: Amaranthus retoflexus (AMARE); test: Pre-emergence Test (Table B1), AMARE; details: evaluated after 13 days
[10] = system: Amaranthus palmeri (AMAPA); test: Post-emergence Test (Table B2), AMAPA; parameters: key: five-point scale: 5=81-100%, 4=61-80%, 3=41-60%, 2=21-40%, 1=0-20% damage; details: evaluated after 13 days
Description: as §1

[11] = system: Amaranthus retoflexus (AMARE); test: Post-emergence Test (Table B2), AMARE; parameters: key: five-point scale: 5=81-100%, 4=61-80%, 3=41-60%, 2=21-40%, 1=0-20% damage; details: rate 1000 g/Ha, evaluated after 13 days
Description: as §1

[12] = system: Setaria faberi (SETFA); test: Post-emergence Test (Table B2), SETFA; parameters: key: five-point scale: 5=81-100%, 4=61-80%, 3=41-60%, 2=21-40%, 1=0-20% damage; details: rate 1000 g/Ha, evaluated after 13 days
Description: as §1

CCn1c(Cc2ccc(OC)c(OC)c2)cc(=O)c(C(=O)O)c1-c1ccc(Cl)c(Cl)c1 [Compound 34, 2-(3,4-dichlorophenyl)-6-[(3,4-dimethoxyphenyl)meth-yl]-1-ethyl-4-oxo-pyridine-3-carboxylic acid]
0: percentage damage caused to the plant, IPOHE ([1]; rate 1000 g/Ha) | percentage damage caused to the plant, ZEAMX ([2]; rate 1000 g/Ha) | percentage damage caused to the plant, ECHCG ([3]; rate 1000 g/Ha)

CCn1c(Cc2ccn[nH]c2=O)cc(=O)c(C(=O)O)c1-c1ccc(Cl)c(Cl)c1 [Compound 142, 2-(3,4-dichlorophenyl)-1-ethyl-4-oxo-6-[(6-oxo-1H-pyridazin-5-yl)methyl]pyridine-3-carboxylic acid]
0: Pre-emergence Test, percentage damage caused to the plant (five-point scale), ZEAMX ([4]; Rate 250 g/Ha) | Pre-emergence Test, percentage damage caused to the plant (five-point scale), ECHCG ([5]; Rate 250 g/Ha) | Pre-emergence Test, percentage damage caused to the plant (five-point scale), SETFA ([6]; Rate 250 g/Ha)

CCn1c(Cc2ccc(C)nn2)cc(=O)c(C(=O)O)c1-c1ccc(Cl)c(Cl)c1 [Compound 139, 2-(3,4-dichlorophenyl)-1-ethyl-6-[(6-methylpyridazin-3-yl)methyl]-4-oxo-pyridine-3-carboxylic acid]
0: Pre-emergence Test, percentage damage caused to the plant (five-point scale), SETFA ([6]; Rate 250 g/Ha) | percentage damage caused to the plant, ZEAMX ([2]; rate 250 g/Ha) | percentage damage caused to the plant, ECHCG ([3]; rate 250 g/Ha)

CCn1c(Cc2cccc(OC)c2OC)cc(=O)c(C(=O)O)c1-c1ccc(Cl)c(Cl)c1 [Compound 38, 2-(3,4-dichlorophenyl)-6-[(2,3-dimethoxyphenyl)meth-yl]-1-ethyl-4-oxo-pyridine-3-carboxylic acid]
0: percentage damage caused to the plant, IPOHE ([1]; rate 1000 g/Ha) | percentage damage caused to the plant, ZEAMX ([2]; rate 1000 g/Ha) | percentage damage caused to the plant, ECHCG ([3]; rate 1000 g/Ha)

CCn1c(Cc2nccnc2Cl)cc(=O)c(C(=O)O)c1-c1ccc(Cl)c(Cl)c1 [Compound 144, 6-[(3-chloropyrazin-2-yl)methyl]-2-(3,4-dichlorophenyl)-1-ethyl-4-oxo-pyridine-3-carboxylic acid]
0: Pre-emergence Test, percentage damage caused to the plant (five-point scale), IPOHE ([7]; Rate 250 g/Ha) | Pre-emergence Test, percentage damage caused to the plant (five-point scale), ZEAMX ([4]; Rate 250 g/Ha) | Pre-emergence Test, percentage damage caused to the plant (five-point scale), ECHCG ([5]; Rate 250 g/Ha) | Pre-emergence Test, percentage damage caused to the plant (five-point scale), AMAPA ([8]; Rate 250 g/Ha) | Pre-emergence Test, percentage damage caused to the plant (five-point scale), SETFA ([6]; Rate 250 g/Ha)

CCn1c(Cc2ccc(Cl)cc2)cc(=O)c(C(=O)O)c1-c1ccc(Cl)c(Cl)c1 [Compound 7, 6-[(4-chlorophenyl)methyl]-2-(3,4-dichlorophenyl)-1-ethyl-4-oxo-pyridine-3-carboxylic acid]
0: Pre-emergence Test, percentage damage caused to the plant (five-point scale), IPOHE ([7]; Rate 1000 g/Ha) | Pre-emergence Test, percentage damage caused to the plant (five-point scale), ZEAMX ([4]; Rate 1000 g/Ha) | Pre-emergence Test, percentage damage caused to the plant (five-point scale), ECHCG ([5]; Rate 1000 g/Ha) | Pre-emergence Test, percentage damage caused to the plant (five-point scale), AMARE ([9]; Rate 1000 g/Ha) | Pre-emergence Test, percentage damage caused to the plant (five-point scale), SETFA ([6]; Rate 1000 g/Ha)

CCn1c(Cc2cccc(Cl)n2)cc(=O)c(C(=O)O)c1-c1ccc(OC(C)C)c(Cl)c1 [Compound 132, 2-(3-chloro-4-isopropoxy-phenyl)-6-[(6-chloro-2-pyridyl)methyl]-1-ethyl-4-oxo-pyridine-3-carboxylic acid]
0: Pre-emergence Test, percentage damage caused to the plant (five-point scale), IPOHE ([7]; Rate 250 g/Ha) | Pre-emergence Test, percentage damage caused to the plant (five-point scale), ZEAMX ([4]; Rate 250 g/Ha) | Pre-emergence Test, percentage damage caused to the plant (five-point scale), ECHCG ([5]; Rate 250 g/Ha) | Pre-emergence Test, percentage damage caused to the plant (five-point scale), AMARE ([9]; Rate 250 g/Ha) | percentage damage caused to the plant, IPOHE ([1]; rate 250 g/Ha) | percentage damage caused to the plant, AMAPA ([10]; rate 250 g/Ha)

CCn1c(Cc2cccc(C(C)C)c2)cc(=O)c(C(=O)O)c1-c1ccc(Cl)c(Cl)c1 [Compound 23, 2-(3,4-dichlorophenyl)-1-ethyl-6-[(3-isopropylphenyl)methyl]-4-oxo-pyridine-3-carboxylic acid]
0: percentage damage caused to the plant, IPOHE ([1]; rate 1000 g/Ha) | percentage damage caused to the plant, ZEAMX ([2]; rate 1000 g/Ha) | percentage damage caused to the plant, ECHCG ([3]; rate 1000 g/Ha)

CCn1c(Cc2cnc3ccccc3n2)cc(=O)c(C(=O)O)c1-c1ccc(Cl)c(Cl)c1 [Compound 145, 2-(3,4-dichlorophenyl)-1-ethyl-4-oxo-6-(quinoxalin-2-ylmethyl)pyridine-3-carboxylic acid]
0: Pre-emergence Test, percentage damage caused to the plant (five-point scale), IPOHE ([7]; Rate 250 g/Ha) | Pre-emergence Test, percentage damage caused to the plant (five-point scale), ZEAMX ([4]; Rate 250 g/Ha) | Pre-emergence Test, percentage damage caused to the plant (five-point scale), AMARE ([9]; Rate 250 g/Ha) | Pre-emergence Test, percentage damage caused to the plant (five-point scale), SETFA ([6]; Rate 250 g/Ha)

CCn1c(Cc2ccc(C3CC3)cc2)cc(=O)c(C(=O)O)c1-c1ccc(Cl)c(Cl)c1 [Compound 25, 6-[(4-cyclopropylphenyl)meth-yl]-2-(3,4-dichlorophenyl)-1-ethyl-4-oxo-pyridine-3-carboxylic acid]
0: percentage damage caused to the plant, IPOHE ([1]; rate 1000 g/Ha) | percentage damage caused to the plant, ECHCG ([3]; rate 1000 g/Ha)

CCn1c(Cc2ccccc2OC)cc(=O)c(C(=O)O)c1-c1ccc(Cl)c(Cl)c1 [Compound 24, 2-(3,4-dichlorophenyl)-1-ethyl-6-[(2-methoxyphenyl)methyl]-4-oxo-pyridine-3-carboxylic acid]
0: percentage damage caused to the plant, IPOHE ([1]; rate 1000 g/Ha) | percentage damage caused to the plant, ZEAMX ([2]; rate 1000 g/Ha) | percentage damage caused to the plant, ECHCG ([3]; rate 1000 g/Ha)

CCn1c(Cc2cc(O)cc(F)n2)cc(=O)c(C(=O)O)c1-c1ccc(Cl)c(Cl)c1 [Compound 104, 2-(3,4-dichlorophenyl)-1-ethyl-6-[(6-fluoro-4-hydroxy-2-pyridyl)methyl]-4-oxo-pyridine-3-carboxylic acid]
0: percentage damage caused to the plant, IPOHE ([1]; rate 1000 g/Ha)

CCn1c(Cc2ccc(Cl)cc2F)cc(=O)c(C(=O)O)c1-c1ccc(Cl)c(Cl)c1 [Compound 79, 6-[(4-chloro-2-fluoro-phenyl)methyl]-2-(3,4-dichlorophenyl)-1-ethyl-4-oxo-pyridine-3-carboxylic acid]
0: Pre-emergence Test, percentage damage caused to the plant (five-point scale), IPOHE ([7]; Rate 1000 g/Ha) | Pre-emergence Test, percentage damage caused to the plant (five-point scale), ZEAMX ([4]; Rate 1000 g/Ha) | Pre-emergence Test, percentage damage caused to the plant (five-point scale), ECHCG ([5]; Rate 1000 g/Ha) | Pre-emergence Test, percentage damage caused to the plant (five-point scale), AMAPA ([8]; Rate 1000 g/Ha) | Pre-emergence Test, percentage damage caused to the plant (five-point scale), AMARE ([9]; Rate 1000 g/Ha) | Pre-emergence Test, percentage damage caused to the plant (five-point scale), SETFA ([6]; Rate 1000 g/Ha)

CCn1c(Cc2cccc(SC)c2)cc(=O)c(C(=O)O)c1-c1ccc(Cl)c(Cl)c1 [Compound 31, 2-(3,4-dichlorophenyl)-1-ethyl-6-[(3-methylsulfanylphenyl)methyl]-4-oxo-pyridine-3-carboxylic acid]
0: percentage damage caused to the plant, IPOHE ([1]; rate 1000 g/Ha) | percentage damage caused to the plant, ZEAMX ([2]; rate 1000 g/Ha) | percentage damage caused to the plant, ECHCG ([3]; rate 1000 g/Ha)

CCn1c(Cc2ccc(F)c(C(=O)O)n2)cc(=O)c(C(=O)O)c1-c1ccc(Cl)c(Cl)c1 [Compound 98, 6-[(6-carboxy-5-fluoro-2-pyridyl)methyl]-2-(3,4-dichlorophenyl)-1-ehtyl-4-oxo-pyridine-3-carboxylic acid]
0: Pre-emergence Test, percentage damage caused to the plant (five-point scale), ZEAMX ([4]; Rate 1000 g/Ha) | percentage damage caused to the plant, IPOHE ([1]; rate 1000 g/Ha) | percentage damage caused to the plant, ZEAMX ([2]; rate 1000 g/Ha)

CCn1c(Cc2ccccc2Cl)cc(=O)c(C(=O)O)c1-c1ccc(Cl)c(Cl)c1 [Compound 16, 6-[(2-chlorophenyl)methyl]-2-(3,4-dichlorophenyl)-1-ethyl-4-oxo-pyridine-3-carboxylic acid]
0: Pre-emergence Test, percentage damage caused to the plant (five-point scale), IPOHE ([7]; Rate 1000 g/Ha) | Pre-emergence Test, percentage damage caused to the plant (five-point scale), ECHCG ([5]; Rate 1000 g/Ha) | percentage damage caused to the plant, ZEAMX ([2]; rate 1000 g/Ha) | percentage damage caused to the plant, ECHCG ([3]; rate 1000 g/Ha) | percentage damage caused to the plant, AMAPA ([10]; rate 1000 g/Ha) | percentage damage caused to the plant, AMARE [11] | percentage damage caused to the plant, SETFA [12]

CCn1c(Cc2cccc(OC)n2)cc(=O)c(C(=O)O)c1-c1ccc(Cl)c(Cl)c1 [Compound 60, 2-(3,4-dichlorophenyl)-1-ethyl-6-[(6-methoxy-2-pyridyl)methyl]-4-oxo-pyridine-3-carboxylic acid]
0: Pre-emergence Test, percentage damage caused to the plant (five-point scale), ZEAMX ([4]; Rate 250 g/Ha) | Pre-emergence Test, percentage damage caused to the plant (five-point scale), SETFA ([6]; Rate 250 g/Ha)
